Article PMC11121495, “Blap-6, a Novel Antifungal Peptide from the Chinese Medicinal Beetle Blaps rhynchopetera against Cryptococcus neoformans” (International Journal of Molecular Sciences, 2024)
Where no end group is shown, it is not given here.

Columns and labels:
E. coli = assay: microbe, parasite or virus in culture; assay type: cell-based, Escherichia coli (ATCC 8739)
Source text: (§1) These standard strains of Escherichia coli (E. coli, ATCC 8739), Staphylococcus aureus (S. aureus, ATCC 6538), Pseudomonas aeruginosa (P. aeruginosa, ATCC 27853), Acinetobacter baumannii (A. baumannii, ATCC 1968), Candida albicans (ATCC 10231), and the clinical strain of Methicillin-resistant Staphylococcus aureus (MRSA, MRSA-Z) were obtained from Kunming Medical University. The standard strain of C. neoformans (ATCC 32045) was purchased from Shanghai Yingxin Laboratory Co., Ltd. (CAS NO. YXJ50058). Different strains of E. coli, S. aureus, MRSA, P. aeruginosa, and A. baumannii were cultured with shaking at 37 °C in Luria–Bertani (LB) medium. C. neoformans was cultured at 35 °C in Sabouraud Dextrose Agar (SDA) medium according to the manufacturer’s instructions.
(§2) According to Clinical and Laboratory Standards Institute (CLSI) protocols, the minimum inhibitory concentration (MIC) is the minimum drug concentration at which antibiotics inhibit the growth and reproduction of strains. The different strains were grown in their corresponding media at 35 °C or 37 °C until they entered the exponential growth phase. Fluconazole and amphotericin B were used as positive controls, and sterile 0.9% NaCl was used as a negative control. The peptides were diluted to various concentrations in sterile saline. According to 1 OD = 1 × 10^9 CFU/mL, the above bacterial solution was diluted to 2 × 10^5 CFU/mL with the corresponding medium. In advance, 100 μL of normal saline was added to a sterile 96-well plate, and 200 μL of the sample to be tested was added to the first well. The sample to be tested was subjected to double gradient dilution, and then 100 μL of bacterial solution with a concentration of 2 × 10^5 was added to each well. It was cultured at 35 °C or 37 °C for different times. The light absorption value of the bacterial solution at 600 nm was detected by a microplate reader (Epoch Etock, Biotek, Winooski, VT, USA), and the average concentration of the samples in the pores and adjacent pores that could not detect microbial growth was used as the MIC value.

A. baumannii = assay: microbe, parasite or virus in culture; assay type: cell-based, Acinetobacter baumannii (ATCC 1968)
Source text: as §1, §2

C. albicans = assay: microbe, parasite or virus in culture; assay type: cell-based, Candida albicans (ATCC 10231)
Source text: as §1, §2

C. neoformans ATCC 32045 [1] = assay: Transmission electron microscopy of treated cells; assay type: cell-based, Cryptococcus neoformans; details: 1 × MIC (0.81 μM), 12 h, 37 °C
Procedure: The suspension of C. neoformans ATCC 32045 was prepared and then centrifuged at 3500 rpm for 5 min. The supernatant was discarded, and sterile normal saline was added for washing. That is, the above operation was repeated three times and re-suspended. […] The positive control, including the concentration of fluconazole and amphotericin, was 1 × MIC. The negative control was added with the same volume of sterile normal saline. After the sample was added to the fungal solution, it was incubated in an incubator at 37 °C for 12 h, and then centrifuged at 1000 rpm for 10 min. The supernatant was discarded, and osmium tetroxide was slowly added along the tube wall for fixation and fixed at 4 °C for 3 h. Gradient ethanol was used for dehydration, infiltration, and embedding. Finally, ultrathin sections were performed. After the above operation, the morphological changes in C. neoformans were observed by TEM (Tecnai G2 Spirit, FEI, Eindhoven, Holland) and photographed.

C. neoformans ATCC 32045 [2] = assay: Reactive oxygen species detection, H2DCFDA; assay type: cell-based, Cryptococcus neoformans; details: 1 × MIC, 8 × MIC, 32 × MIC, 30 min, 35 °C; H2DCFDA 10 μM, 488/525 nm
Procedure: 2′,7′-Dichlorofluorescin diacetate (H2DCFDA) is a cell-permeable probe for detecting intracellular ROS [77]. […] The different concentrations of blap-6 (1 × MIC, 8 × MIC, and 32 × MIC) were incubated with the diluted fungal solution at 35 °C for 30 min, and 0.1 mM H2O2 was used as a positive control. The negative control group was treated with normal saline and incubated at 37 °C for 30 min. Centrifuged at 8000 rpm and 4 °C for 5 min, discard the supernatant, leaving the cell precipitate. The H2DCFDA dye (Boer, Shanghai, China) was dissolved in DMSO and diluted with normal saline containing 1% DMSO to a final concentration of 10 μM. And added 1 mL of H2DCFDA (10 μM) working solution to each tube and incubated at 35 °C for 30 min. And then precipitated the pellets, discarded the supernatant, and paid attention not to suck out the fungi. […] The excitation/wavelength emission was set at 488/525 nm, and three replicates were set in the experiment.

in vitro = in vitro ADME
Procedure: (§3) For investigating the impact of protease on blap-6, trypsin and chymotrypsin were chosen as the enzymes to be studied in the experiment. […] Then these samples (including blap-6 as a standard) were detected by high-performance liquid chromatography (HPLC, Waters, Milford, MA, USA) on a C18 column (4.6 mm × 250 mm, Waters, USA). Solvent A was ultrapure water, and solvent B was acetonitrile. The flow rate was 0.5 mL/min, and the detection wavelength was 280 nm. The column was balanced with 95% solvent A in 0-3 min and eluted with 95-40% solvent A in 3-10 min, 40-5% solvent A in 10-15 min, and 5-95% solvent A in 15-20 min. The degradation rate was calculated by the peak area of the HPLC.

trypsin = assay: in vitro; assay type: in vitro ADME
Procedure: as §3

KRCRFRIYRWGFPRRRF [blap-6]
MIC (E. coli): 9.77 µM
MIC (A. baumannii): 19.54 µM
MIC (C. albicans): 1.22 µM
cell morphology by TEM (C. neoformans ATCC 32045 [1]): severe disruption of the structural and cellular morphology
production of reactive oxygen species (ROS) (C. neoformans ATCC 32045 [2]): concentration-dependent increase
half-life at 2.44 mg/mL (in vitro; isolated enzyme chymotrypsin): ~5 h
metabolised at 1 h, 2.44 mg/mL (in vitro; isolated enzyme chymotrypsin): 19%
metabolised at 24 h, 2.44 mg/mL (in vitro; isolated enzyme several chymotrypsin trypsin): 90%
half-life at 2.44 mg/mL (in vitro; isolated enzyme trypsin): ~6 h
degradation with trypsin (trypsin): began to degrade
